Results: US20240150322A1, “CDK9 Inhibitors” (Biolexis Therapeutics, Inc., priority 2022, published 2024)

Columns and labels:
[1] = Pharmacokinetic study in mice; conditions: mouse, in vivo, po
[2] = test system: RWPE-1 Normal Prostate Cells; test: CellTiter-Glo 2D cell viability assay in normal prostate cells; format: cell-based; conditions: Homo sapiens; RWPE-1 normal prostate cells, 72 hours
Description: Multiplexing the LDH-Glo Cytotoxicity Assay and CellTiter-Glo 2D Cell Viability Assay. […] Change in toxicity was measured using the LDH-Glo Cytotoxicity Assay by combining 50 μL diluted samples with 50 μL LDH Detection Reagent and recording luminescence after 1 hour incubation. After samples were removed for LDH measurement, an equal volume of CellTiter Glo 2D Reagent was added to the remaining cell suspension and luminescence was recorded after 30-minute incubation period.

[3] = test system: 22RV1 induced neuroendocrine prostate cancer (NEPC) CDX; test: In vivo tumor efficacy study, 22Rv1 NEPC CDX
Description: 22Rv1 cells were cultured in RPMI supplemented with 10% FBS and 1% P/S, in a humidified incubator at 37° C. and 5% CO2. Nu/nu Balb/c homozygous mice were procured through Jackson laboratory (Strain 002019). Mice were fed Teklad irradiated (sterilized) mouse diet and bedded with Teklad irradiated (sterilized) corncob bedding from Envigo (Indianapolis, IN). Mice were housed in Optimice carousel sterile quarters with filtered air supply in disposable cages from Animal Care Systems, Inc. (Centennial, CO). A 12-hour light/12-hour dark light cycle is observed, with animal handling only taking place during the light cycle.
22Rv1 Implantation: On the day of implantation, cells were trypsinized and allowed to detach from flasks. Trypsin was then neutralized with complete media and cells were spun at 300×g. Media was aspirated and cells were re-suspended in 50:50 Cultrex RPMI (no supplementation) at a concentration of 5×10^7 cells/mL. A volume of 100 μL was injected into the right hind flank of each animal (a total of 5×10^6 cells per mouse). Cells were checked for viability using trypan blue exclusion and found to be >98% viable.
• All mice were dosed orally, and the observation duration was 21 days […]
Tumor volumes: Tumor volumes were measured by digital caliper, and volume was calculated using the formula [Width^2×Length]/2. All tumor volume measurements are recorded. […]

**Q.** Which bioavailability [1] does the source give for `CC(C)c1c2cc(-c3ccnc(N[C@H]4CC[C@H](N)C4)n3)ccc2nn1C` [Compound I-2, (1S,3S)-[3-[4-(3-isopropyl-2-methylindazol-5-yl)pyrimidin-2-yl]aminocyclopentan-1-yl]-1,3-diamine] here?
**A.** Its bioavailability is 28%.

**Q.** And the IC50 [2]?
**A.** Its IC50 is 5.26 µM.

**Q.** And the tumor growth ([3]; 22Rv1, 30, 50, 65 mg/kg orally once daily, 21 days)?
**A.** Its tumor growth is “inhibit tumor growth in a dose dependent manner”.

**Q.** And the tolerability ([3]; 22Rv1 study, >50 mg/kg dosing levels)?
**A.** The tolerability was “Tolerability issues”.
